# Data from patent US9034826B2, “Use of epidermal growth factor for the morphofunctional restoration of peripheral nerves in diabetic neuropathy” (Centro de Ingenieria Genetica y Biotecnologia, priority 2006, dated 2015).
# Tests used:
# Format in all cases: in vivo, Wistar rats
# [1] = system: Redox state in fragments of sciatic nerve; assay: Redox profile in fragments of sciatic nerve, reversion study (Example 2); settings: established diabetic neuropathy, 100 μg EGF in 1 ml i.p. 3 days a week for one month
# Protocol: (§1) The aim of this study was to evaluate the neurorestoration effect of the pharmaceutical composition. Male Wistar rats between 200-250 grams of body is weight received a subcutaneous injection of streptozotocin at 75 mg/kg in sodium citrate buffer, and were allowed to evolve until 120 days after disease induction. All rats used in this experiment had shown sustained glucose levels above 15 mmol/L. Animals were handled and fed as previously described. A concurrent control group was set, where animals received saline instead of streptozotocin. […] After this period an electrophysiological characterization of all rats were done and animals were split in two random treatment groups:
# (§2) Group II. Animals received the pharmaceutical composition with 100 μg of EGF in 1 ml, 3 days a week, by intraperitoneal route.
# (§3) One month after conclusion of the treatment with either EGF containing composition or saline, and […] after disease induction, animals were sacrificed by an overdose of anesthesia and perfused with saline buffer pH 7.4. A total of ten animals per experimental group were included for histomorphometric studies, and an equivalent number of rats were used for biochemical determinations. In both systems the sciatic nerves from both limbs were dissected. The procedures were similar to those described for the neuropathic damage prevention assay. Samples taken for histological and o histomorphometric studies were stained with hematoxilin/eosin and toluidine blue. At least five fragments of the same nerve were quantitatively studied using MADIP program. The fragments were included in OCT blocks, post-fixed with glutaraldehyde, and sliced horizontal and transversally. The histological indicators assessed have been described above as well as the procedures used for the processing and evaluation: • Total number of blood vessels (in epineural/perineural) in 10 microscopic fields using 10× as constant magnification in longitudinal cuts of the nerve. • Percentage of demyelinated fibers. Evaluated by averaging the values per microscopic field (×20, at least five fields). • Percentage of myelin or non-myelin fibers with lesions (dilated or distorted) per microscopic field (×20, at least five fields). • Percentage of endoneurial collagenization (moderated: 25 to 50%; severe: more than 50% of the endoneurial area in transversal slices, and at least three different sections.
# Ten animals from each group were used for the biochemical determinations in the is fragments of the sciatic nerve collected. The following biochemical parameters were studied:
# Redox Profile: • Total Superoxide Dismutase (tSOD) enzymatic activity total. • Catalase enzymatic activity. • Intra-axonal accumulation of total hydroperoxides (THP). • Intra-axonal accumulation of malonyldialdehyde (MDA).
# Lipoprotein Lipase (LPL) = assay: Lipoprotein lipase (LPL) enzymatic activity in sciatic nerve fragments, reversion study (Example 2); settings: established diabetic neuropathy, 100 μg EGF in 1 ml i.p. 3 days a week for one month
# Protocol: Fragments of the nerve from each animal were incubated together with 3 μg/ml heparin in Krebs-Ringer buffer at 37° C. for 50 minutes. Aliquots from these samples were then incubated in the presence of [^14C] triolein-phosphatidylcholine. ^14C labeled fatty acids were quantified by the classic methods. LPL activity was expressed in nanomoles of released fatty acids (RFA) per minute and gram of tissue.
# as §1, §2
# The aim of this study was to compare the LPL enzymatic activity after one month of treatment with EGF containing composition, as compared to saline treated diabetic animals. […]
# [2] = system: Redox state in fragments from the sciatic nerve; assay: Redox profile in fragments from the sciatic nerve, prevention study (Example 1)
# Protocol: Male Wistar, with 200-250 grams of body weight, received a subcutaneous injection of streptozotocin, at 75 mg/kg in sodium citrate buffer. Water was then replaced by a 10% sucrose solution during the next 24 h, to prevent deaths caused by hypoglycemia. Glucose levels in blood were monitored every morning during the next 72 hours after the injection. Only animals with sustained glucose values above 15 mmol/L were used. Rats were housing at 4 per cage and fed in the conventional way. A concurrent group of other 80 rats received citrate buffer without streptozotocin and was handled in a similar fashion to the diabetic group. The average value for glycemia during the 72 hours in this group was 5.87 mmol/L.
# All treatments were conducted during 8 weeks, starting one week after streptozotocin injection. The composition used contained 75 μg of human recombinant EGF/ml. Several types of observations were conducted in the animals under study:
# Once the treatment was concluded, animals were sacrificed at day 70 after induction of diabetes, 10 days after the last dose was given, and the analysis described above is was completed. Animals were sacrificed by an overdose of anesthesia and perfused with saline buffer pH 7.4. A total of ten animals per experimental group were included for histomorphometric studies, and an equivalent number of rats were used for biochemical determinations. In both systems the sciatic nerves from both limbs were dissected; fragments were kept at −70° C. until processed. The samples taken for histological and/or histomorphometric studies were stained with hematoxilin/eosin and toluidine blue. At least five fragments of the same nerve were quantitatively studied using MADIP program. The fragments were included in blocks of celloidine and gelatin, and those blocks were horizontal and transversally sliced. The following histological indicators were evaluated: • Total number of blood vessels (in epineural/perineural) in 10 microscopic fields using 10× as constant magnification in longitudinal cuts of the nerve. • Percentage of demyelinated fibers. Evaluated by averaging the values per microscopic field (×20, at least five fields). • Percentage of myelin or non-myelin fibers with lesions (dilated or distorted) per microscopic field (×20, at least five fields). • Percentage of endoneurial collagenization (moderated: 25 to 50%; severe: more than 50% of the endoneurial area in transversal slices, and at least three different sections.
# Ten animals per experimental group were used to conduct biochemical determinations in the fragments of sciatic nerve collected. The biochemical parameters studied were the following:
# Redox Profile: • Activity of total Superoxide Dismutase enzyme (tSOD). • Activity of catalase enzyme. • Intra-axonal accumulation of total hydroperoxides (HPT). • Intra-axonal accumulation of malonyldialdehyde (MDA).
# sciatic nerve = assay: Histomorphometric study on fragments of the sciatic nerve, reversion study (Example 2); settings: established diabetic neuropathy, 100 μg EGF in 1 ml i.p. 3 days a week, evaluation after 30 days
# Protocol: as §1, §2, §3
# [3] = Treatment group 1 (once weekly i.p., 8 weeks)
# [4] = Treatment group 3 (three times a week i.p., 8 weeks)
substance,measurement,setting,value
"EGF containing pharmaceutical composition: Composition with human recombinant EGF: 75 μg/ml in Example 1, 100 μg in 1 ml in Example 2, given intraperitoneally",Catalase activity,[1],86.1 ± 6.5 units per milligram of protein per minute
same,MDA (malonyldialdehyde),[1],0.1 ± 0.03 nmol/mg of protein
same,THP (total hydroperoxides),[1],55.8 ± 12.7 nmol/mg of protein
same,tSOD (total Superoxide Dismutase activity),[1],1988.4 ± 101.6 units per milligram of protein per minute
same,LPL activity in the sciatic nerve,Lipoprotein Lipase (LPL),6.29 ± 1.67 nmoles AGL/min/g
same,Catalase activity,[2]; [3],"274.60 ± 52.3 units per milligram, of protein per minute"
same,HPT (total hydroperoxides),[2]; [3],143.05 ± 1.98 nmol/mg of protein
same,MDA (malonyldialdehyde),[2]; [3],0.24 ± 0.04 nmol/mg of protein
same,tSOD (total Superoxide Dismutase activity),[2]; [3],"958.17 ± 244.61 units per milligram, of protein per minute"
same,Catalase activity,[2]; [4],"37.62 ± 8.13 units per milligram, of protein per minute"
same,HPT (total hydroperoxides),[2]; [4],25.15 ± 1.81 nmol/mg of protein
same,MDA (malonyldialdehyde),[2]; [4],0.08 ± 0.02 nmol/mg of protein
same,tSOD (total Superoxide Dismutase activity),[2]; [4],"2102.83 ± 112.67 units per milligram, of protein per minute"
same,% of collagenized area,sciatic nerve,46.3 ± 9.5%
same,% of demyelinated fibers,sciatic nerve,50.6 ± 12.3%
same,% of fibers with lesions,sciatic nerve,52.6 ± 8.3%
same,No. of blood vessels,sciatic nerve; 10 microscopic fields,86.5 ± 14.6
